Columns and labels:
[1] = system: TGFβ induced activity of SBE-luciferase reporter; assay: SBE-luciferase (Smad response-element) reporter assay in NIH3T3-E1 cells; format: cell-based, mouse; settings: 48 hrs
Method: NIH3T3-E1 cells cultured in 24 well-plates at 90% confluence were transiently transfected with 0.1 μg of Smad response-element reporter (SBE-Luciferase) plasmid (Qiagen), or with 0.1 μg of Gli response-element reporter (pGL3b-8xGli-Luciferase) plasmid, and 10 ng of pSV40-Renilla-Luciferase plasmid (Promega, Madison, WI, USA) with or without co-transfection with 10ng of Gli1 overexpression vector, pSRα-Gli1 using a Lipofectamine LTX Plus transfection reagent, as previously described [23]. […] 6 hrs after transfection, cells were treated with test agents for 72 h. […] Twenty-four hours after transfection, cells were treated with test agents for 20 h. Then the firefly and Renilla luciferase activities were measured using a dual luciferase kit (Promega) and a GloMax-96 Microplate Luminometer (Promega) or a plate reader-SpectraMax iD3 (Molecular Devices, San Jose, CA, USA). The firefly luciferase activities were normalized to the Renilla luciferase activities.
(d) NIH3T3 cells cultured in 24 well-plates were transfected with a Smad response element reporter (SBE-Luciferase) plasmid and a pTK-Renilla-Luciferase plasmid. 6 hrs after transfection, cells were treated with the test agents as indicated for 48 hrs. Luciferase activity was measured and normalized to the Renilla luciferase activity.

[2] = system: Hh signaling (Gli1, Ptch1 mRNA) in NIH3T3-E1 cells; assay: Ligand-induced Hh target gene expression (Q-RT-PCR) in NIH3T3 cells treated with CAPAN-1 conditioned medium; format: cell-based
Method: Growth medium in confluent […] tissue culture plates of CAPAN-1 cells was replaced with 10 mL of fresh growth medium and cells incubated for a total of 7 days. Conditioned medium (CM) containing Shh and Ihh was collected and spun down to remove any detached cells and debris, aliquoted, and stored frozen at −80 °C (21).
Total RNA was extracted with the RNeasy Plus Mini Kit from Qiagen (Hilden, Germany) according to the manufacturer’s instructions. One microgram of RNA was reverse-transcribed using an iScript Reverse Transcription Supermix from Bio-Rad Laboratories (Hercules, CA, USA) to make single-stranded cDNA. The cDNAs were then mixed with Qi SYBR Green Supermix (Bio-Rad) for quantitative RT-PCR assay using a Bio-Rad I-cycler IQ quantitative thermocycler. All PCR samples were prepared in triplicate wells in a 96-well plate. After 40 cycles of PCR, melt curves were examined in order to ensure primer specificity. Fold changes in gene expression were calculated using the ΔΔCt method. Primers used for mouse were as follows: Oaz1 (5′-CCACTGCTTCGCCAGAGAG-3′) and (5′-CCCGGACCCAGGTTACTA-3′), Gli1 (5′- […]-3′ and 5′- GCT GATCCAGCCTAAGGTTCTC-3′), Ptch1 (5′-CCATCGGCGACAAGAACC-3′ and 5′-[…]-3′), Thbs1 (5′-[…]-3′ and 5′-CGGGGATCAGGTTGGCATT-3′), Cryab (5′-[…]-3′ and 5′-[…]-3′), Egr2 (5′-[…]-3′ and 5′-[…]-3′), CTGF (5′-GGGCCTCTTCTGCGATTTC-3′ and 5′-[…]-3′).
Statistical analyses were performed using the StatView 5 program (SAS Institute, Cary, NC, USA). All p values were calculated using ANOVA and Fisher’s projected least significant difference (PLSD) significance test. A value of p < 0.05 was considered significant. The IC 50 dose-response curves shown in Figure 4b and Figure 7a–c were modeled using a five-parameter logistic model. This model allows for asymmetric curves and automatically estimates the mean maximum and minimum response. Based on this model, IC 50 values were estimated corresponding to the dose halfway between min and max response. Models of dose versus response and dose versus log response were also evaluated (see Supplementary Materials). The R square statistic was computed as a measure of model fit.
Figure 4 Inhibition of ligand-induced Hedgehog and TGFβ signaling in mouse fibroblast cells. NIH3T3 cells were pretreated for 2 h with Oxy210 or various inhibitors as indicated in DMEM containing 5% FBS. […] After 72 h, RNA was extracted and analyzed by Q-RT-PCR for the expression of Hh target genes Gli1 and Ptch1 and normalized to Oaz1 expression (a,b). […] After 48 h, RNA was extracted and analyzed by Q-RT-PCR for the expression of TGFβ target genes as indicated and normalized to Oaz1 expression. […] Luciferase activity was measured and normalized to the Renilla luciferase activity. […]

Structure (SMILES): C[C@]12CC[C@H]3[C@@H](CC=C4C[C@@H](O)CC[C@@]43C)[C@@H]1CC[C@@H]2[C@](C)(O)CCc1cccnc1 [Oxy210, (3S,8S,9S,10R,13S,14S,17S)-17-((R)-2-hydroxy-4-(pyridin-3-yl)butan-2-yl)-10,13-dimethyl-2,3,4,7,8,9,10,11,12,13,14,15,16,17-tetradecahydro-1H-cyclopenta[a]phenanthren-3-ol]
- TGFβ induced activity of SBE-luciferase reporter [1]: significantly inhibited
- IC10 Estimate, dataset 1 - Fig 4b ([2]; Gli1 mRNA, original scale Y, logistic curve model): 0.33 µM
- IC90 ([2]; Mus musculus, Gli1 mRNA, original scale Y, logistic curve model, read-out: IC90 Estimate, dataset 1 - Fig 4b): 5.5 µM
- mRNA expression of ligand-induced Hh target genes Gli1 and Ptch1 ([2]; NIH3T3-E1 cells, CAPAN-1 CM, 72 h): robustly inhibited
- IC50 ([2]; NIH3T3-E1 cells, CAPAN-1 CM, 72 h, Gli1 mRNA, five-parameter logistic model, ± SE, read-out: IC50 for inhibition of Gli1 expression): 1.83 ± 0.21 µM
